Measurements: paper PMC5396026 (Chemical Research in Toxicology, 2016)

Key:
AR [1] = target: T1, AR (Rattus norvegicus, UniProt P15207); experiment: Literature review: AR transactivation assays, agonist mode; details: reference classification from curated literature TA data (mean AC50)
T1 sequence (P15207 1-902): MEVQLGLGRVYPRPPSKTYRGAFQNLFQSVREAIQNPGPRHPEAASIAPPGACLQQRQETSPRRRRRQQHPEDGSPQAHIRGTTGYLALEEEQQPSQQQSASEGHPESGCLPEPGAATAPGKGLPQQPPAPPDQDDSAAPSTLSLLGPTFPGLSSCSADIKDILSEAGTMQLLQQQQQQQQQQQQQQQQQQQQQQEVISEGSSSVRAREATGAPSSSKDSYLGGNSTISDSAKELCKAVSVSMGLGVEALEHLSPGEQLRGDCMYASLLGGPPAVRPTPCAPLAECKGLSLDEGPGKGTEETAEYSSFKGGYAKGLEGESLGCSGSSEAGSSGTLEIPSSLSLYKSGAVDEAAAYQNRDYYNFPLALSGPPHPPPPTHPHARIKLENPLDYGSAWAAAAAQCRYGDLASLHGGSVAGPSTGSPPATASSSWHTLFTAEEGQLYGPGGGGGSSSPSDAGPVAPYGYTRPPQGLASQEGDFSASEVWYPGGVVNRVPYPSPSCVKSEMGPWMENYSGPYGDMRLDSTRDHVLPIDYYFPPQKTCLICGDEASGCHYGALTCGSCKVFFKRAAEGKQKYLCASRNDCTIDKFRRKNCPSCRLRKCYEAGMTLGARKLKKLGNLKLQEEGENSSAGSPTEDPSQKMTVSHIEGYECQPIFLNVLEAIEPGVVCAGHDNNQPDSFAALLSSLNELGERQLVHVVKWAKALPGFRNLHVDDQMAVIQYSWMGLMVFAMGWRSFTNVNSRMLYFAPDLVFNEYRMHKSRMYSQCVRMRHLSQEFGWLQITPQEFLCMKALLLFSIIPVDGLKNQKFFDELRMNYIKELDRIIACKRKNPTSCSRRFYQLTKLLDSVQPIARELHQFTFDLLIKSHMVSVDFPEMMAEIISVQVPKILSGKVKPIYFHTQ

AR [2] = target: T2, AR (Homo sapiens, UniProt P10275); assay type: cell-based; details: AC50 at 10 nM vs 0.5 nM R1881, 95% confidence intervals
T2 sequence (P10275 1-920): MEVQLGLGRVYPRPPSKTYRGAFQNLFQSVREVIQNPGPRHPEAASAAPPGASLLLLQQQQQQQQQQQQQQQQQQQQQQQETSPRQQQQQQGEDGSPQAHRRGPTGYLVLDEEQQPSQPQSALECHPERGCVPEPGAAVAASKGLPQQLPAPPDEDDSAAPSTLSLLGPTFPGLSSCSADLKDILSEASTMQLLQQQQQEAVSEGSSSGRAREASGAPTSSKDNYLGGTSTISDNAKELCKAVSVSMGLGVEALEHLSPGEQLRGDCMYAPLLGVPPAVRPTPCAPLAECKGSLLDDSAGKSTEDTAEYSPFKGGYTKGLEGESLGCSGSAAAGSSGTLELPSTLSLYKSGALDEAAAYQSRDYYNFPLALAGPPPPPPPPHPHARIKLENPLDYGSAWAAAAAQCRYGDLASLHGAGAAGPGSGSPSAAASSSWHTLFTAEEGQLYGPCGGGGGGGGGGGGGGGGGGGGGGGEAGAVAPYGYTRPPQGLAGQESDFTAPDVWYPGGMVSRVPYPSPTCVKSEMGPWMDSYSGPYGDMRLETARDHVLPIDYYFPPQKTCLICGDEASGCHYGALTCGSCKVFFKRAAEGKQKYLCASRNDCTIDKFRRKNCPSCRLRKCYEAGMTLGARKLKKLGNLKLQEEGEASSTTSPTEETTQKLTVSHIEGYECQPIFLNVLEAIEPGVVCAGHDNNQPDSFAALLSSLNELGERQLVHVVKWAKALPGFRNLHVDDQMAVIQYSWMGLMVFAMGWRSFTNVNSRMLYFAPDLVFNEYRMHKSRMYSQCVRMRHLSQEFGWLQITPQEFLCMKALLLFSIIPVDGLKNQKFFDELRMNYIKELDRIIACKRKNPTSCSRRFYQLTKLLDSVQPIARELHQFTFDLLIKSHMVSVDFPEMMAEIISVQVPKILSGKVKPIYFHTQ

AR pathway = details: for AR pathway model call: maximum of agonist or antagonist AUC
cytotoxicity = assay type: cell-based; details: distance of AR assay logAC50 from median cytotoxicity logAC50; high = >3

C[C@]12CC[C@@H]3c4ccc(O)cc4C[C@@H](CCCCCCCCC[S+]([O-])CCCC(F)(F)C(F)(F)F)[C@H]3[C@@H]1CC[C@@H]2O (stereo partly drawn) [ICI 182,780]
agonist potency category (AR [1]): negative

CC/N=c1\cc2oc3cc(NCC)c(C)cc3c(-c3ccccc3C(=O)OCC)c-2cc1C [rhodamine 6G]
potency shift in antagonist confirmation assay (AR [2]): flagged for a lack of a potency shift

COC(=O)Nc1nc2ccccc2[nH]1 [carbendazim]
agonist potency category (AR [1]): negative

CNC(=O)Oc1cccc2ccccc12 [carbaryl]
AR pathway model call (AR pathway): negative (negative if the maximum was <0.001)

CC[C@H](c1ccc(O)cc1)[C@@H](CC)c1ccc(O)cc1 [meso-hexestrol]
potency shift in antagonist confirmation assay (AR [2]): shift in the correct direction but with overlapping confidence intervals

C[C@]12CC[C@@H]3c4ccc(O)cc4CC[C@H]3[C@@H]1CC[C@H]2O [17a-estradiol]
AR pathway model AUC, Agonist (R1) (AR pathway): 0.67
AR pathway model agonist prediction against reference classification (AR pathway; agonist reference chemicals): false positive

CC(C)(O)C(=O)Nc1ccc([N+](=O)[O-])c(C(F)(F)F)c1 [hydroxyflutamide]
average Z-score (cytotoxicity): high

Oc1ccc(/C=C/c2cc(O)cc(O)c2)cc1 [resveratrol]
agonist potency category (AR [1]): negative

CC/C(=C(\c1ccccc1)c1ccc(OCCN(C)C)cc1)c1ccccc1 [tamoxifen]
AR pathway model AUC, Agonist (R1) (AR pathway): 0.0335

CCN=C1C=CC(=C(c2ccc(N(CC)CC)cc2)c2ccc(N(CC)CC)cc2)c2ccccc21.Cl [basic blue 7]
potency shift in antagonist confirmation assay (AR [2]): flagged for a lack of a potency shift

CCc1cccc(C)c1N(C(=O)CCl)C(C)COC (stereo not drawn) [metolachlor]
AR pathway model call (AR pathway): negative (negative if the maximum was <0.001)

CCCCC(C#N)(Cn1cncn1)c1ccc(Cl)cc1 (stereo not drawn) [myclobutanil]
AR pathway model call (AR pathway): negative (negative if the maximum was <0.001)

CC(C)=CC1C(C(=O)OCN2C(=O)C3=C(CCCC3)C2=O)C1(C)C (stereo not drawn) [tetramethrin]
agonist potency category (AR [1]): negative

Oc1ccccc1-c1ccccc1 [2-phenylphenol]
AR pathway model call (AR pathway): negative (negative if the maximum was <0.001)

CC(=O)S[C@@H]1CC2=CC(=O)CC[C@]2(C)[C@H]2CC[C@@]3(C)[C@@H](CC[C@@]34CCC(=O)O4)[C@H]12 [spironolactone]
average Z-score (cytotoxicity): high

CON(C)C(=O)Nc1ccc(Cl)c(Cl)c1 [linuron]
average Z-score (cytotoxicity): high

C[C@]12C=CC3=C4CCC(=O)C=C4CC[C@H]3[C@@H]1CC[C@@H]2O [17b-trenbolone]
agonist potency category (AR [1]): strong (Strong: mean AC50 ≤ 0.1 μM)

C=CC1(C)OC(=O)N(c2cc(Cl)cc(Cl)c2)C1=O (stereo not drawn) [vinclozolin]
average Z-score (cytotoxicity): high

O=c1cc(-c2ccc(O)cc2)oc2cc(O)cc(O)c12 [apigenin]
average Z-score (cytotoxicity): high

CCCCNC(=O)n1c(NC(=O)OC)nc2ccccc21 [benomyl]
agonist potency category (AR [1]): negative

COP(=S)(OC)SCN1C(=O)c2ccccc2C1=O [phosmet]
AR pathway model call (AR pathway): negative (negative if the maximum was <0.001)

C[C@H]1CCCC(=O)CCC/C=C/c2cc(O)cc(O)c2C(=O)O1 [zearalenone]
potency shift in antagonist confirmation assay (AR [2]): active in both screens and exhibited a potency shift in the expected direction
AR pathway model antagonist prediction against reference classification (AR pathway; antagonist reference chemicals): false negative

N#Cc1c(Cl)cccc1Cl [dichlobenil]
AR pathway model call (AR pathway): negative (negative if the maximum was <0.001)

CCOP(=S)(OCC)Oc1cc(C)nc(C(C)C)n1 [diazinon]
AR pathway model call (AR pathway): negative (negative if the maximum was <0.001)

CC1(C)NC(=O)N(c2ccc([N+](=O)[O-])c(C(F)(F)F)c2)C1=O [nilutamide]
average Z-score (cytotoxicity): high

C[C@]1(O)CC[C@H]2[C@@H]3CCC4=CC(=O)CCC4=C3C=C[C@@]21C [methyltrienolone (R1881), methyltrienolone]
agonist potency category (AR [1]): strong (Strong: mean AC50 ≤ 0.1 μM)

CC1(C)[C@H](C(=O)O[C@H](C#N)c2cccc(Oc3ccccc3)c2)[C@@H]1C=C(Br)Br [deltamethrin]
agonist potency category (AR [1]): negative

CC1(C)C(C=C(Cl)Cl)C1C(=O)OCc1cccc(Oc2ccccc2)c1 (stereo not drawn) [permethrin]
agonist potency category (AR [1]): negative
